ChEMBL document CHEMBL1139057, “Rotenoids and flavonoids with anti-invasion of HT1080, anti-proliferation of U937, and differentiation-inducing activity in HL-60 from Erycibe expansa” (Bioorg Med Chem, 2007)
Calls of active or inactive are those of the source. No cut-off for these calls is given here.

What was measured:
U-937 [1] = assay: Antiproliferative activity against human U937 cells after 24 hrs by WST-8 assay; assay type: functional, cell-based; details: U-937, 24 h
U-937 [2] = assay: Antiproliferative activity against human U937 cells after 48 hrs by WST-8 assay; assay type: functional, cell-based; details: U-937, 48 h
U-937 [3] = assay: Antiproliferative activity against human U937 cells after 72 hrs by WST-8 assay; assay type: functional, cell-based; details: U-937, 72 h
HT-1080 [4] = assay: Antiproliferative activity against human HT1080 cells at 30 uM after 48 hrs by calcein-AM assay; assay type: functional; details: HT-1080, 48 h
HT-1080 [5] = assay: Antiproliferative activity against human HT1080 cells at 1 uM after 72 hrs by MTT assay; assay type: functional; details: HT-1080, 72 h
HT-1080 [6] = assay: Antiproliferative activity against human HT1080 cells at 30 uM after 24 hrs by MTT assay; assay type: functional; details: HT-1080, 24 h
HT-1080 [7] = assay: Inhibition of proMMP9 production in human HT1080 cells by gelatin zymography analysis; assay type: functional, cell-based
HT-1080 [8] = assay: Antiproliferative activity against human HT1080 cells at 3 uM after 24 hrs by calcein-AM assay; assay type: functional; details: HT-1080, 24 h
HT-1080 [9] = assay: Antiproliferative activity against human HT1080 cells at 3 uM after 48 hrs by calcein-AM assay; assay type: functional; details: HT-1080, 48 h
HT-1080 [10] = assay: Antiproliferative activity against human HT1080 cells at 10 uM after 48 hrs by MTT assay; assay type: functional; details: HT-1080, 48 h
HT-1080 [11] = assay: Antiproliferative activity against human HT1080 cells at 10 uM after 72 hrs by MTT assay; assay type: functional; details: HT-1080, 72 h
HT-1080 [12] = assay: Antiproliferative activity against human HT1080 cells at 1 uM after 24 hrs by MTT assay; assay type: functional; details: HT-1080, 24 h
HT-1080 [13] = assay: Inhibition of invasion of human HT1080 cells at 30 uM after 24 hrs; assay type: functional; details: HT-1080, 24 h
HT-1080 [14] = assay: Antiproliferative activity against human HT1080 cells at 1 uM after 72 hrs by calcein-AM assay; assay type: functional; details: HT-1080, 72 h
HT-1080 [15] = assay: Antiproliferative activity against human HT1080 cells at 1 uM after 48 hrs by calcein-AM assay; assay type: functional; details: HT-1080, 48 h
HT-1080 [16] = assay: Inhibition of invasion of human HT1080 cells at 3 uM after 24 hrs; assay type: functional; details: HT-1080, 24 h
HT-1080 [17] = assay: Antiproliferative activity against human HT1080 cells at 3 uM after 48 hrs by MTT assay; assay type: functional; details: HT-1080, 48 h
HT-1080 [18] = assay: Antiproliferative activity against human HT1080 cells at 30 uM after 72 hrs by calcein-AM assay; assay type: functional; details: HT-1080, 72 h
HT-1080 [19] = assay: Antiproliferative activity against human HT1080 cells at 3 uM after 72 hrs by MTT assay; assay type: functional; details: HT-1080, 72 h
HT-1080 [20] = assay: Antiproliferative activity against human HT1080 cells at 30 uM after 48 hrs by MTT assay; assay type: functional; details: HT-1080, 48 h
HT-1080 [21] = assay: Antiproliferative activity against human HT1080 cells at 10 uM after 24 hrs by MTT assay; assay type: functional; details: HT-1080, 24 h
HT-1080 [22] = assay: Antiproliferative activity against human HT1080 cells at 3 uM after 72 hrs by calcein-AM assay; assay type: functional; details: HT-1080, 72 h
HT-1080 [23] = assay: Inhibition of invasion of human HT1080 cells at 10 uM after 24 hrs; assay type: functional; details: HT-1080, 24 h
HT-1080 [24] = assay: Antiproliferative activity against human HT1080 cells at 1 uM after 48 hrs by MTT assay; assay type: functional; details: HT-1080, 48 h
HT-1080 [25] = assay: Inhibition of invasion of human HT1080 cells at 1 uM after 24 hrs; assay type: functional; details: HT-1080, 24 h
HT-1080 [26] = assay: Antiproliferative activity against human HT1080 cells at 30 uM after 72 hrs by MTT assay; assay type: functional; details: HT-1080, 72 h
HT-1080 [27] = assay: Antiproliferative activity against human HT1080 cells at 3 uM after 24 hrs by MTT assay; assay type: functional; details: HT-1080, 24 h
HT-1080 [28] = assay: Antiproliferative activity against human HT1080 cells at 10 uM after 24 hrs by calcein-AM assay; assay type: functional; details: HT-1080, 24 h
HT-1080 [29] = assay: Antiproliferative activity against human HT1080 cells at 1 uM after 24 hrs by calcein-AM assay; assay type: functional; details: HT-1080, 24 h
HT-1080 [30] = assay: Inhibition of proMMP2 production in human HT1080 cells by gelatin zymography analysis; assay type: functional, cell-based
HT-1080 [31] = assay: Antiproliferative activity against human HT1080 cells at 10 uM after 72 hrs by calcein-AM assay; assay type: functional; details: HT-1080, 72 h
HT-1080 [32] = assay: Antiproliferative activity against human HT1080 cells at 10 uM after 48 hrs by calcein-AM assay; assay type: functional; details: HT-1080, 48 h
HT-1080 [33] = assay: Antiproliferative activity against human HT1080 cells at 30 uM after 24 hrs by calcein-AM assay; assay type: functional; details: HT-1080, 24 h

O=c1cc(-c2ccc(O)c(O)c2)oc2cc(O)cc(O)c12 [LUTEOLIN]
IC50 (U-937 [1]): 36 µM
IC50 (U-937 [2]): 28 µM
IC50 (U-937 [3]): 20 µM

CC(C)(O)[C@@H](O)Cc1c(O)cc(O)c2c(=O)c(-c3ccc(O)cc3)coc12 [ERYCIBENIN B]
IC50 (U-937 [1]): > 100 µM
IC50 (U-937 [2]): > 100 µM
IC50 (U-937 [3]): > 100 µM

COc1ccc(-c2coc3cc(O)ccc3c2=O)cc1O [CALYCOSIN]
IC50 (U-937 [1]): 49 µM
IC50 (U-937 [2]): 48 µM
IC50 (U-937 [3]): 43 µM

CC(C)(O)[C@@H](O)Cc1c(O)cc2occ(-c3ccc(O)cc3)c(=O)c2c1O [ERYCIBENIN A]
IC50 (U-937 [1]): 46 µM
IC50 (U-937 [2]): 25 µM
IC50 (U-937 [3]): 21 µM

CC(C)=CCc1c(O)cc2occ(-c3ccc(O)cc3)c(=O)c2c1O [WIGHTEONE]
IC50 (U-937 [1]): 28 µM
IC50 (U-937 [2]): 35 µM
IC50 (U-937 [3]): 32 µM

C=C(C)[C@H]1Cc2c(ccc3c2O[C@@H]2COc4cc(OC)c(OC)cc4[C@@H]2C3=O)O1 [ROTENONE]
IC50 (U-937 [1]): 13 µM
inhibition at 30 µM (HT-1080 [4]): 40.4%
inhibition at 1 µM (HT-1080 [5]): 98.6%
inhibition at 30 µM (HT-1080 [6]): 0.7%
Activity (HT-1080 [7]): Active
inhibition at 3 µM (HT-1080 [8]): 17.1%
inhibition at 3 µM (HT-1080 [9]): 44.2%
inhibition at 10 µM (HT-1080 [10]): 97.3%
inhibition at 10 µM (HT-1080 [11]): 98.4%
inhibition at 1 µM (HT-1080 [12]): 9.4%
inhibition at 30 µM (HT-1080 [13]): 51.6%
inhibition at 1 µM (HT-1080 [14]): 97.4%
inhibition at 1 µM (HT-1080 [15]): 35.2%
inhibition at 3 µM (HT-1080 [16]): 19.6%
inhibition at 3 µM (HT-1080 [17]): 97.5%
inhibition at 30 µM (HT-1080 [18]): 93.4%
inhibition at 3 µM (HT-1080 [19]): 98.5%
inhibition at 30 µM (HT-1080 [20]): 96.9%
IC50 (U-937 [2]): 0.2 µM
inhibition at 10 µM (HT-1080 [21]): 9.5%
inhibition at 3 µM (HT-1080 [22]): 95.3%
inhibition at 10 µM (HT-1080 [23]): 53.7%
inhibition at 1 µM (HT-1080 [24]): 95.9%
inhibition at 1 µM (HT-1080 [25]): 0.6%
inhibition at 30 µM (HT-1080 [26]): 97.8%
IC50 (U-937 [3]): 0.07 µM
inhibition at 3 µM (HT-1080 [27]): 9.9%
inhibition at 10 µM (HT-1080 [28]): 23%
inhibition at 1 µM (HT-1080 [29]): 16.2%
Activity (HT-1080 [30]): Active
inhibition at 10 µM (HT-1080 [31]): 91.4%
inhibition at 10 µM (HT-1080 [32]): 51%
inhibition at 30 µM (HT-1080 [33]): 26.8%

COc1ccc([C@@H]2CCc3c(OC)cc(OC)cc3O2)cc1
IC50 (U-937 [1]): 29 µM
IC50 (U-937 [2]): 21 µM
IC50 (U-937 [3]): 18 µM

COc1ccc2c(c1)OC[C@@]1(OC)c3cc4c(cc3O[C@@H]21)OCO4 [ERYCIBENIN C]
IC50 (U-937 [1]): > 100 µM
IC50 (U-937 [2]): > 100 µM
IC50 (U-937 [3]): > 100 µM
